Measurements from patent publication US20240423992A1, “BIOMARKERS FOR TREATING LIVER DISORDERS WITH THR-B AGONISTS AND RELATED USES” (Madrigal Pharmaceuticals, Inc., priority 2023, published 2024).

Columns and labels:
Assay type in all cases: in vivo, human
[1] = test system: adults with nonalcoholic fatty liver disease (NAFLD)/presumed nonalcoholic steatohepatitis (NASH); assay: 52-week Phase 3 trial (Example 1): sex hormone levels; conditions: Week 52
Experimental: (§1) A 52-week randomized, double-blind, placebo-controlled Phase 3 trial was conducted to evaluate the safety and effect of resmetirom, an oral, once-daily, liver-targeted thyroid hormone receptor-β selective agonist, on multiple biomarkers in adults with nonalcoholic fatty liver disease (NAFLD)/presumed nonalcoholic steatohepatitis (NASH). Patients were randomized to three double-blind arms (100 mg resmetirom, 80 mg resmetirom, or placebo) or one open-label arm (100 mg resmetirom). Common concomitant medications across the 4 arms were antidiabetes drugs (such as glucagon-like peptide-1 receptor agonists (GLP-1 RAs), metformin, pioglitazone, and sodium/glucose cotransporter-2 inhibitors (SGLT2i)) and drugs to manage dyslipidemia (statins).
Sex hormone levels after 52 weeks of resmetirom treatment are shown in Table A. Thyroid hormone levels after 52 weeks of resmetirom treatment are reported in Table B.

[2] = test system: adults with nonalcoholic fatty liver disease (NAFLD)/presumed nonalcoholic steatohepatitis (NASH); assay: 52-week Phase 3 trial (Example 1): hepatic fat by MRI-PDFF
Experimental: as §1

[3] = test system: adults with nonalcoholic fatty liver disease (NAFLD)/presumed nonalcoholic steatohepatitis (NASH); assay: 52-week Phase 3 trial (Example 1): liver volume, open-label arm; conditions: for Liver volume, mean reduction from baseline: open-label 100 mg resmetirom arm
Experimental: as §1
Liver volume was evaluated in the open-label 100 mg resmetirom arm at Week 52. Liver volume was reduced from baseline by a mean of 21% and 23% following 16 and 52 weeks of resmetirom treatment, respectively (FIGS. 3A and 3B). […] Correcting hepatic fat reduction for reduced liver volume led to an average hepatic fat reduction of 61% in the open-label arm.

[4] = Resmetirom 80 mg DB vs Placebo DB
[5] = Resmetirom 100 mg DB vs Placebo DB

CC(C)c1cc(Oc2c(Cl)cc(-n3nc(C#N)c(=O)[nH]c3=O)cc2Cl)n[nH]c1=O [Resmetirom, 2-[3,5-dichloro-4-[(6-oxo-5-propan-2-yl-1H-pyridazin-3-yl)oxy]phenyl]-3,5-dioxo-1,2,4-triazine-6-carbonitrile]
Estradiol (female) LSM Difference [1, 4]: 7.1 ng/L | Estradiol (male) LSM Difference [1, 4]: 4.8 ng/L | FSH (female) LSM Difference [1, 4]: −1.1 IU/L | FSH (male) LSM Difference [1, 4]: 0.2 IU/L | Free testosterone (female) LSM Difference [1, 4]: 0.0002 µg/L | Free testosterone (male) LSM Difference [1, 4]: 0.0115 µg/L | LH (female) LSM Difference [1, 4]: −0.9 IU/L | LH (male) LSM Difference [1, 4]: 0.4 IU/L | SHBG (female) LSM Difference in % CFB [1, 4]: 119.5% | SHBG (female) LSM Difference in CFB [1, 4]: 39.9 nmol/L | SHBG (male) LSM Difference in % CFB [1, 4]: 69.7% | SHBG (male) LSM Difference in CFB [1, 4]: 24.5 (3.9) nmol/L | SHBG LSM Difference in % CFB [1, 4]: 96.0% | SHBG LSM Difference in CFB [1, 4]: 32.1 nmol/L | Testosterone (female) LSM Difference [1, 4]: 0.1 µg/L | Testosterone (male) LSM Difference [1, 4]: 1.5 µg/L | Estradiol (female) LSM CFB ([1]; Resmetirom 80 mg DB): 5.0 ng/L | Estradiol (male) LSM CFB ([1]; Resmetirom 80 mg DB): 3.3 ng/L | FSH (female) LSM CFB ([1]; Resmetirom 80 mg DB): 0.9 IU/L | FSH (male) LSM CFB ([1]; Resmetirom 80 mg DB): 0.3 IU/L | Free testosterone (female) LSM CFB ([1]; Resmetirom 80 mg DB): 0.0004 µg/L | Free testosterone (male) LSM CFB ([1]; Resmetirom 80 mg DB): 0.0077 µg/L | LH (female) LSM CFB ([1]; Resmetirom 80 mg DB): 0.8 IU/L | LH (male) LSM CFB ([1]; Resmetirom 80 mg DB): 0.4 IU/L | SHBG (female) LSM % CFB ([1]; Resmetirom 80 mg DB): 133.0% | SHBG (female) LSM CFB ([1]; Resmetirom 80 mg DB): 43.3 nmol/L | SHBG (male) LSM % CFB ([1]; Resmetirom 80 mg DB): 67.1% | SHBG (male) LSM CFB ([1]; Resmetirom 80 mg DB): 21.9 nmol/L | SHBG LSM % CFB ([1]; Resmetirom 80 mg DB): 99.6% | SHBG LSM CFB ([1]; Resmetirom 80 mg DB): 32.7 nmol/L | Testosterone (female) LSM CFB ([1]; Resmetirom 80 mg DB): 0.1 µg/L | Testosterone (male) LSM CFB ([1]; Resmetirom 80 mg DB): 1.4 µg/L | Estradiol (female) LSM Difference [1, 5]: 9.5 ng/L | Estradiol (male) LSM Difference [1, 5]: 10.4 ng/L | FSH (female) LSM Difference [1, 5]: −0.4 IU/L | FSH (male) LSM Difference [1, 5]: 0.5 IU/L | Free testosterone (female) LSM Difference [1, 5]: -0.0006 µg/L | Free testosterone (male) LSM Difference [1, 5]: 0.0029 µg/L | LH (female) LSM Difference [1, 5]: −0.5 IU/L | LH (male) LSM Difference [1, 5]: 0.8 IU/L | SHBG (female) LSM Difference in % CFB [1, 5]: 184.0% | SHBG (female) LSM Difference in CFB [1, 5]: 61.8 nmol/L | SHBG (male) LSM Difference in % CFB [1, 5]: 125.5% | SHBG (male) LSM Difference in CFB [1, 5]: 41.7 (3.8) nmol/L | SHBG LSM Difference in % CFB [1, 5]: 157.5% | SHBG LSM Difference in CFB [1, 5]: 52.4 nmol/L | Testosterone (female) LSM Difference [1, 5]: 0.1 µg/L | Testosterone (male) LSM Difference [1, 5]: 2.1 µg/L | Estradiol (female) LSM CFB ([1]; Resmetirom 100 mg DB): 7.5 ng/L | Estradiol (male) LSM CFB ([1]; Resmetirom 100 mg DB): 8.9 ng/L | FSH (female) LSM CFB ([1]; Resmetirom 100 mg DB): 1.6 IU/L | FSH (male) LSM CFB ([1]; Resmetirom 100 mg DB): 0.6 IU/L | Free testosterone (female) LSM CFB ([1]; Resmetirom 100 mg DB): -0.0003 µg/L | Free testosterone (male) LSM CFB ([1]; Resmetirom 100 mg DB): -0.0009 µg/L | LH (female) LSM CFB ([1]; Resmetirom 100 mg DB): 1.2 IU/L | LH (male) LSM CFB ([1]; Resmetirom 100 mg DB): 0.9 IU/L | SHBG (female) LSM % CFB ([1]; Resmetirom 100 mg DB): 197.6% | SHBG (female) LSM CFB ([1]; Resmetirom 100 mg DB): 65.3 nmol/L | SHBG (male) LSM % CFB ([1]; Resmetirom 100 mg DB): 122.9% | SHBG (male) LSM CFB ([1]; Resmetirom 100 mg DB): 39.2 nmol/L | SHBG LSM % CFB ([1]; Resmetirom 100 mg DB): 161.1% | SHBG LSM CFB ([1]; Resmetirom 100 mg DB): 53.0 nmol/L | Testosterone (female) LSM CFB ([1]; Resmetirom 100 mg DB): 0.1 µg/L | Testosterone (male) LSM CFB ([1]; Resmetirom 100 mg DB): 2.0 µg/L | Estradiol (female) LSM CFB ([1]; Resmetirom 100 mg OL): 11.0 ng/L | Estradiol (male) LSM CFB ([1]; Resmetirom 100 mg OL): 11.7 ng/L | FSH (female) LSM CFB ([1]; Resmetirom 100 mg OL): 1.3 IU/L | FSH (male) LSM CFB ([1]; Resmetirom 100 mg OL): 0.6 IU/L | Free testosterone (female) LSM CFB ([1]; Resmetirom 100 mg OL): -0.0006 µg/L | Free testosterone (male) LSM CFB ([1]; Resmetirom 100 mg OL): 0.024 µg/L | LH (female) LSM CFB ([1]; Resmetirom 100 mg OL): −0.0 IU/L | LH (male) LSM CFB ([1]; Resmetirom 100 mg OL): 0.3 IU/L | SHBG (female) LSM % CFB ([1]; Resmetirom 100 mg OL): 199.3% | SHBG (female) LSM CFB ([1]; Resmetirom 100 mg OL): 68.6 nmol/L | SHBG (male) LSM % CFB ([1]; Resmetirom 100 mg OL): 156.0% | SHBG (male) LSM CFB ([1]; Resmetirom 100 mg OL): 44.7 nmol/L | SHBG LSM % CFB ([1]; Resmetirom 100 mg OL): 182.6% | SHBG LSM CFB ([1]; Resmetirom 100 mg OL): 60.3 nmol/L | Testosterone (female) LSM CFB ([1]; Resmetirom 100 mg OL): 0.1 µg/L | Testosterone (male) LSM CFB ([1]; Resmetirom 100 mg OL): 2.8 µg/L | hepatic fat reduction, 80 mg compared with 100 mg ([2]; 80 mg resmetirom, in general): less effective than 100 mg resmetirom | hepatic fat (MRI-PDFF), change from baseline ([2]; Week 52, all key patient subgroups): reduced hepatic fat from baseline | hepatic fat reduction by subgroup ([2]; weight gain ≥5% or <120% increase in SHBG): lower hepatic fat reduction | hepatic fat reduction by subgroup ([2]; weight loss ≥5% or ≥120% increase from baseline in SHBG): greater reduction in hepatic fat | Liver volume in patient subgroups ([3]; all key patient subgroups of the OL arm): reductions in liver volume were observed | Liver volume, mean reduction from baseline ([3]; 16 weeks): 21% | Liver volume, mean reduction from baseline ([3]; 52 weeks): 23% | average hepatic fat reduction corrected for reduced liver volume ([3]; open-label arm): 61%
